Results taken from US20240270762A1, “PENICILLIN-BINDING PROTEIN INHIBITORS” (priority 2021, published 2024).
In brackets after ≈: the same amount, converted by molar mass.

Columns and labels:
[1] = target: T1, PBP1a from Acinetobacter baumannii (ATCC 19606) (Acinetobacter baumannii, UniProt A0ABX6CK30); test: Bocillin-FL fluorescence polarization competition binding, A. baumannii PBP1a; conditions: fluorescence polarization competition binding assay using Bocillin-FL; read-out: A. baumannii PBP1a Potency
T1 sequence (A0ABX6CK30 1-851): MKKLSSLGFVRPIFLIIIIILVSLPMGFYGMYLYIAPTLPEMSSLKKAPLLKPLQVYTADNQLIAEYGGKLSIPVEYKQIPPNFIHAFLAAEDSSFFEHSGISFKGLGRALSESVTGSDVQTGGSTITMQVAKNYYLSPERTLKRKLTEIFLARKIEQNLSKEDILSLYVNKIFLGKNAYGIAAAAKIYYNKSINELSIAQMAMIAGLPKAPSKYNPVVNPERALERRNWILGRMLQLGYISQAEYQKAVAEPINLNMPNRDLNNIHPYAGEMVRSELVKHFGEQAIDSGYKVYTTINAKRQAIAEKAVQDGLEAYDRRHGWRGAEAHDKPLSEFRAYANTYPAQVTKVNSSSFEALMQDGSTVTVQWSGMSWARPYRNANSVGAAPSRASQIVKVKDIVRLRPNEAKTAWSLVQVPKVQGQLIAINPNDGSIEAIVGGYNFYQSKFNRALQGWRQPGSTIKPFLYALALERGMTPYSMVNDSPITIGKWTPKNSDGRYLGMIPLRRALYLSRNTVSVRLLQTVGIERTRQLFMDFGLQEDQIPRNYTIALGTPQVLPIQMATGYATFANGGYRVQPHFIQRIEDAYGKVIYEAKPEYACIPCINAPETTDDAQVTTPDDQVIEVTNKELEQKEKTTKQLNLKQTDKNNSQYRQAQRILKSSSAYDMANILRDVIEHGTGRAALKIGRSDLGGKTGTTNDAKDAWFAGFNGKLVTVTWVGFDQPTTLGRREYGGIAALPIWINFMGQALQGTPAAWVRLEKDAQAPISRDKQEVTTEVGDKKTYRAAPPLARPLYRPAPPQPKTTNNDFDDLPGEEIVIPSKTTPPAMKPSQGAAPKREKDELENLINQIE
In short: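 Purified PBPs pre-incubated with inhibitor (E. coli PBP3 1.5 μM, 30 min; P. aeruginosa PBP3 0.75 μM, A. baumannii PBP1a 1 μM and PBP3 0.2 μM, 15 min), then Bocillin-FL 0.1 μM (0.05 μM for PBP1a) added; FP read up to 60 min. EC50 = concentration halving bound Bocillin-FL.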

[2] = test system: N. gonorrhoeae WHO G; test: Liquid broth MIC in Fastidious broth; conditions: Neisseria gonorrhoeae, read-out: Minimum Inhibitory Concentration (MIC), N. gonorrhoeae WHO G
Method: Additional antibacterial testing of the series was performed in 8 reference strains of N. gonorrhoeae (ATCC 49226, FA1090, MS 11, WHO G, WHO L, WHO M, WHO K, WHO X, WHO Z, WHO Q, CDC-0197). ATCC 49226, FA1090, MS11, WHO G, WHO L, and WHO M produce wild type or wild-type like PBP2. WHO K, WHO X, WHO Z, WHO Q, and CDC-0197 produce mosaic PBP2. Liquid broth-based assays were used for antibacterial testing of PBP inhibitors in Neisseria gonorrhoeae. Briefly, cryo-preserved bacterial cultures of clinical strains were streaked for isolation on Chocolate Agar (72 g/L (2×) GC Agar Base (BD #228950) and 2% (2×) Hemoglobin was autoclaved at 121° C. for 20 minutes to sterilize. Once cooled to ˜50° C. the 2×GC Agar Base and 2× Hemoglobin solutions are combined and 1% IsoVitaleX Enrichment (BD #211876) was added to the solution). Strains were incubated at 36° C. and 5% CO2 to allow growth of colonies, 24 hours before inoculum preparation. 2-fold serial dilutions of test compounds were conducted in a 96 well plate with a final volume of 75 μL per well at 2-fold the final desired concentration in Fastidious broth (Remel #R07664). For preparation of assay inoculum, a direct suspension was prepared by aseptically swabbing 10-15 colonies from agar plates into culture tubes containing 2 mL of fresh sterile saline. After the dilution plates were set up, direct suspensions were then diluted in a cuvette containing sterile saline and the optical density was measured at 600 nm. Inocula were diluted such that 75 μL of this culture in Fastidious broth results in a starting bacterial concentration of 5×10^5 CFU/mL when added to the dilution plates. The plates were incubated for ˜24 hours at 36° C. and 5% CO2.

[3] = test system: N. gonorrhoeae FA1090; test: Liquid broth MIC in Fastidious broth; conditions: Neisseria gonorrhoeae, FA1090, read-out: Minimum Inhibitory Concentration (MIC), N. gonorrhoeae FA 1090
[4] = test system: N. gonorrhoeae WHO Z; test: Liquid broth MIC in Fastidious broth; conditions: Neisseria gonorrhoeae, read-out: Minimum Inhibitory Concentration (MIC), N. gonorrhoeae WHO Z
[5] = test system: P. aeruginosa ATCC 27853; test: microbe, parasite or virus in culture; type: cell-based; conditions: Pseudomonas aeruginosa, ATCC27853, read-out: Minimum inhibitory concentration, P. aeruginosa ATCC 27853

In the case of O=C(NCCN1CCN(C(=O)NC(C(=O)N[C@H]2Cc3ccc(F)c(C(=O)O)c3OB2O)c2cc(F)c(O)c(O)c2Cl)C(=O)C1=O)Nc1ccc(O)cc1 (stereo partly drawn) [Example 219, (3R)-3-(2-(2-chloro-5-fluoro-3,4-dihydroxyphenyl)-2-(4-(2-(3-(4-hydroxyphenyl)ureido)ethyl)-2,3-dioxopiperazine-1-carboxamido)acetamido)-7-fluoro-2-hydroxy-3,4-dihydro-2H-benzo[e][1,2]oxaborinine-8-carboxylic acid], the IC50 [1] is reported as over 250 µM, the MIC [2] is reported as 16 to 32 µg/mL (≈ 21 to 42.1 µM) and the MIC [3] is reported as 1 to 2 µg/mL (≈ 1.31 to 2.63 µM). For the same compound, the MIC [4] was 16 to 32 µg/mL (≈ 21 to 42.1 µM) and the MIC [5] was 2 to 4 µg/mL (≈ 2.63 to 5.26 µM).

O=C(NCCN1CCN(C(=O)NC(C(=O)N[C@H]2Cc3ccc(F)c(C(=O)O)c3OB2O)c2cc(F)c(O)c(O)c2Cl)C(=O)C1=O)Nc1cccc(O)c1 (stereo partly drawn) [Example 220, (3R)-3-(2-(2-chloro-5-fluoro-3,4-dihydroxyphenyl)-2-(4-(2-(3-(3-hydroxyphenyl)ureido)ethyl)-2,3-dioxopiperazine-1-carboxamido)acetamido)-7-fluoro-2-hydroxy-3,4-dihydro-2H-benzo[e][1,2]oxaborinine-8-carboxylic acid] gave an IC50 [1] of over 250 µM, an MIC [2] of 4 to 8 µg/mL (≈ 5.26 to 10.5 µM) and an MIC [3] of 1 to 2 µg/mL (≈ 1.31 to 2.63 µM). The MIC [4] was over 64 µg/mL and the MIC [5] was 2 to 4 µg/mL (≈ 2.63 to 5.26 µM).

For O=C(NCCN1CCN(C(=O)N[C@@H](C(=O)N[C@H]2Cc3ccc(F)c(C(=O)O)c3OB2O)c2cc(F)c(O)c(O)c2Cl)C(=O)C1=O)Nc1ccncc1 [Example 221, (R)-3-((R)-2-(2-chloro-5-fluoro-3,4-dihydroxyphenyl)-2-(2,3-dioxo-4-(2-(3-(pyridin-4-yl)ureido)ethyl)piperazine-1-carboxamido)acetamido)-7-fluoro-2-hydroxy-3,4-dihydro-2H-benzo[e][1,2]oxaborinine-8-carboxylic acid], the IC50 [1] was over 250 µM, the MIC [2] was 4 to 8 µg/mL (≈ 5.36 to 10.7 µM) and the MIC [3] was 1 to 2 µg/mL (≈ 1.34 to 2.68 µM). For the same compound, the MIC [4] was over 64 µg/mL and the MIC [5] was under 1 µg/mL.

O=C(NCCN1CCN(C(=O)N[C@@H](C(=O)N[C@H]2Cc3ccc(F)c(C(=O)O)c3OB2O)c2cc(F)c(O)c(O)c2Cl)C(=O)C1=O)Nc1cccnc1 [Example 222, (R)-3-((R)-2-(2-chloro-5-fluoro-3,4-dihydroxyphenyl)-2-(2,3-dioxo-4-(2-(3-(pyridin-3-yl)ureido)ethyl)piperazine-1-carboxamido)acetamido)-7-fluoro-2-hydroxy-3,4-dihydro-2H-benzo[e][1,2]oxaborinine-8-carboxylic acid] gave an IC50 [1] of over 250 µM, an MIC [2] of 4 to 8 µg/mL (≈ 5.36 to 10.7 µM) and an MIC [3] of 1 to 2 µg/mL (≈ 1.34 to 2.68 µM). The MIC [4] was over 64 µg/mL and the MIC [5] was under 1 µg/mL.

For CN(CCN1CCN(C(=O)NC(C(=O)N[C@H]2Cc3ccc(F)c(C(=O)O)c3OB2O)c2cc(F)c(O)c(O)c2Cl)C(=O)C1=O)S(=O)(=O)c1ccc(C(N)=O)cc1 (stereo partly drawn) [Example 223, (3R)-3-(2-(4-(2-((4-carbamoyl-N-methylphenyl)sulfonamido)ethyl)-2,3-dioxopiperazine-1-carboxamido)-2-(2-chloro-5-fluoro-3,4-dihydroxyphenyl)acetamido)-7-fluoro-2-hydroxy-3,4-dihydro-2H-benzo[e][1,2]oxaborinine-8-carboxylic acid], the IC50 [1] was over 250 µM, the MIC [2] was 16 to 32 µg/mL (≈ 19.4 to 38.9 µM) and the MIC [3] was 4 to 8 µg/mL (≈ 4.86 to 9.72 µM). For the same compound, the MIC [4] was 16 to 32 µg/mL (≈ 19.4 to 38.9 µM) and the MIC [5] was 2 to 4 µg/mL (≈ 2.43 to 4.86 µM).

For CN(CCN1CCN(C(=O)NC(C(=O)N[C@H]2Cc3ccc(F)c(C(=O)O)c3OB2O)c2cc(F)c(O)c(O)c2Cl)C(=O)C1=O)S(=O)(=O)c1cccc(C(N)=O)c1 (stereo partly drawn) [Example 224, (3R)-3-(2-(4-(2-((3-carbamoyl-N-methylphenyl)sulfonamido)ethyl)-2,3-dioxopiperazine-1-carboxamido)-2-(2-chloro-5-fluoro-3,4-dihydroxyphenyl)acetamido)-7-fluoro-2-hydroxy-3,4-dihydro-2H-benzo[e][1,2]oxaborinine-8-carboxylic acid], the IC50 [1] was over 250 µM, the MIC [2] was 16 to 32 µg/mL (≈ 19.4 to 38.9 µM) and the MIC [3] was 4 to 8 µg/mL (≈ 4.86 to 9.72 µM). It also gave an MIC [4] of over 64 µg/mL and an MIC [5] of 2 to 4 µg/mL (≈ 2.43 to 4.86 µM).

CN(CCN1CCN(C(=O)N[C@@H](C(=O)N[C@H]2Cc3ccc(F)c(C(=O)O)c3OB2O)c2cc(F)c(O)c(O)c2Cl)C(=O)C1=O)Cc1cccc(C(N)=O)c1 [Example 225, (R)-3-((R)-2-(4-(2-((3-carbamoylbenzyl)(methyl)amino)ethyl)-2,3-dioxopiperazine-1-carboxamido)-2-(2-chloro-5-fluoro-3,4-dihydroxyphenyl)acetamido)-7-fluoro-2-hydroxy-3,4-dihydro-2H-benzo[e][1,2]oxaborinine-8-carboxylic acid] was tested, and the IC50 [1] was over 250 µM, the MIC [2] was 16 to 32 µg/mL (≈ 20.7 to 41.4 µM) and the MIC [3] was 1 to 2 µg/mL (≈ 1.29 to 2.59 µM). It also gave an MIC [4] of 16 to 32 µg/mL (≈ 20.7 to 41.4 µM) and an MIC [5] of 2 to 4 µg/mL (≈ 2.59 to 5.18 µM).

CN(CCN1CCN(C(=O)N[C@@H](C(=O)N[C@H]2Cc3ccc(F)c(C(=O)O)c3OB2O)c2cc(F)c(O)c(O)c2Cl)C(=O)C1=O)Cc1ccc(C(N)=O)cc1 [Example 226, (R)-3-((R)-2-(4-(2-((4-carbamoylbenzyl)(methyl)amino)ethyl)-2,3-dioxopiperazine-1-carboxamido)-2-(2-chloro-5-fluoro-3,4-dihydroxyphenyl)acetamido)-7-fluoro-2-hydroxy-3,4-dihydro-2H-benzo[e][1,2]oxaborinine-8-carboxylic acid] gave an IC50 [1] of over 250 µM, an MIC [2] of 16 to 32 µg/mL (≈ 20.7 to 41.4 µM) and an MIC [3] of 1 to 2 µg/mL (≈ 1.29 to 2.59 µM). It also gave an MIC [4] of 16 to 32 µg/mL (≈ 20.7 to 41.4 µM) and an MIC [5] of 2 to 4 µg/mL (≈ 2.59 to 5.18 µM).

O=C(NCCCN1CCN(C(=O)NC(C(=O)N[C@H]2Cc3ccc(F)c(C(=O)O)c3OB2O)c2cc(F)c(O)c(O)c2Cl)C(=O)C1=O)Nc1ccc(O)cc1 (stereo partly drawn) [Example 227, (3R)-3-(2-(2-chloro-5-fluoro-3,4-dihydroxyphenyl)-2-(4-(3-(3-(4-hydroxyphenyl)ureido)propyl)-2,3-dioxopiperazine-1-carboxamido)acetamido)-7-fluoro-2-hydroxy-3,4-dihydro-2H-benzo[e][1,2]oxaborinine-8-carboxylic acid] showed an IC50 [1] of over 250 µM, an MIC [2] of 4 to 8 µg/mL (≈ 5.16 to 10.3 µM) and an MIC [3] of 1 to 2 µg/mL (≈ 1.29 to 2.58 µM). For the same compound, the MIC [4] was 16 to 32 µg/mL (≈ 20.6 to 41.3 µM) and the MIC [5] was under 1 µg/mL.

O=C(NCCCN1CCN(C(=O)NC(C(=O)N[C@H]2Cc3ccc(F)c(C(=O)O)c3OB2O)c2cc(F)c(O)c(O)c2Cl)C(=O)C1=O)Nc1ccncc1 (stereo partly drawn) [Example 228, (3R)-3-(2-(2-chloro-5-fluoro-3,4-dihydroxyphenyl)-2-(2,3-dioxo-4-(3-(3-(pyridin-4-yl)ureido)propyl)piperazine-1-carboxamido)acetamido)-7-fluoro-2-hydroxy-3,4-dihydro-2H-benzo[e][1,2]oxaborinine-8-carboxylic acid] gave an IC50 [1] of over 250 µM, an MIC [2] of 16 to 32 µg/mL (≈ 21.1 to 42.1 µM) and an MIC [3] of 1 to 2 µg/mL (≈ 1.32 to 2.63 µM). For the same compound, the MIC [4] was over 64 µg/mL and the MIC [5] was under 1 µg/mL.

Work on O=C(O)c1c(F)ccc2c1OB(O)[C@@H](NC(=O)[C@H](NC(=O)N1CCN(CCNC(=O)[C@@H]3CCCN3)C(=O)C1=O)c1cc(F)c(O)c(O)c1Cl)C2 [Example 229, (R)-3-((R)-2-(2-chloro-5-fluoro-3,4-dihydroxyphenyl)-2-(2,3-dioxo-4-(2-((S)-pyrrolidine-2-carboxamido)ethyl)piperazine-1-carboxamido)acetamido)-7-fluoro-2-hydroxy-3,4-dihydro-2H-benzo[e][1,2]oxaborinine-8-carboxylic acid] yielded an IC50 [1] of over 250 µM, an MIC [2] of 4 to 8 µg/mL (≈ 5.53 to 11.1 µM) and an MIC [3] of 4 to 8 µg/mL (≈ 5.53 to 11.1 µM). The MIC [4] was 16 to 32 µg/mL (≈ 22.1 to 44.3 µM) and the MIC [5] was under 1 µg/mL.

O=C(CN1CCN(C(=O)NC(C(=O)N[C@H]2Cc3ccc(F)c(C(=O)O)c3OB2O)c2cc(F)c(O)c(O)c2Cl)C(=O)C1=O)Nc1ccc(O)cc1 (stereo partly drawn) [Example 230, (3R)-3-(2-(2-chloro-5-fluoro-3,4-dihydroxyphenyl)-2-(4-(2-((4-hydroxyphenyl)amino)-2-oxoethyl)-2,3-dioxopiperazine-1-carboxamido)acetamido)-7-fluoro-2-hydroxy-3,4-dihydro-2H-benzo[e][1,2]oxaborinine-8-carboxylic acid] was tested, and the IC50 [1] was over 250 µM, the MIC [2] was 4 to 8 µg/mL (≈ 5.47 to 10.9 µM) and the MIC [3] was 1 to 2 µg/mL (≈ 1.37 to 2.73 µM). For the same compound, the MIC [4] was 4 to 8 µg/mL (≈ 5.47 to 10.9 µM) and the MIC [5] was under 1 µg/mL.
